Each compound was assayed on benzodiazepine receptors (assay: Flunitrazepam Receptor Binding Assay, FBA Test No. 1 (3H-flunitrazepam displacement, calf caudate)). Settings: final concentration 1×10^-6 M, lower = more displacement of 3H-flunitrazepam, 1 µM.

Compound | Response - % of Control (percent specifically bound compared to control)
CC(c1ccccc1)N1CCn2c1nc1ccc(Cl)cc1c2=O (single isomer, unassigned) [Example 2D] | 15 % of Control
O=c1c2cc(Cl)ccc2nc2n1CCN2Cc1ccccc1 [Example 2A] | 1 % of Control
CC1Cn2c(nc3ccc(Cl)cc3c2=O)N1Cc1ccccc1 (stereo not shown) [Example 2B] | 5 % of Control
O=c1c2cc(Cl)ccc2nc2n1CCN2Cc1ccc(Cl)cc1 [Example 2E, 1-(p-chlorobenzyl)-7-chloro-2,3-dihydro-imidazo[2,1-b]quinazolin-5(1H)-one] | 5 % of Control
